Source: patent publication US20210275624A1, “TREATMENTS FOR IMPROVING OR LESSENING IMPAIRMENT OF MITOCHONDRIAL FUNCTION” (priority 2020, published 2021)
Square brackets hold non-standard residues; d marks the D form. Peptide text beside a SMILES is read from it. Cya = N[C@@H](CS(=O)(=O)O)C(=O)O

Test system: human RPE cells
Format: cell-based
Conditions: RSG 0.4 mM co-treatment with HQ 175 μM, 1.5 hours, vs HQ-treated cells
Description: RPE cells were seeded in triplicate wells of collagen-coated XF 24-well plates and grown for 24 hours. RPE cells that had just reached confluence were washed with SF-MEM and treated for 1.5 hours with HQ (175 μM) with or without RSG (0.4 mM). Media were removed and cells were washed with XF base medium containing 1 mM sodium pyruvate, 2 mM glutamine and 8 mM glucose, pH 7.4. The cells were incubated for 1 hour at 37° C. in a C02-free incubator. Oxygen consumption rate (OCR) was measured by Seahorse XFe24 flux analyzer under basal conditions followed by the sequential addition of 1 μM oligomycin, 1 μM tri-fluorocarbonylcyanide phenylhydrazone (FCCP), and 1 μM rotenone and antimycin A. Maximal OCR was the difference in OCR between FCCP-induced respiration and OCR after injection of antimycin A. Mitochondrial spare respiratory capacity was the difference between maximal respiration and basal OCR. Media were removed and the total proteins were extracted for BCA protein assay after OCR measurements. OCRs were normalized to total protein content.

For C[C@@H](O)[C@H](NC(=O)[C@H](CS(=O)(=O)O)NC(=O)CNC(=O)[C@H](CCCNC(=N)N)NC(=O)CN)C(=O)N1CCC[C@H]1C(=O)O [Risuteganib, Glycyl-L-arginylglycyl-3-sulfo-L-alanyl-L-threonyl-L-proline] (H-GRG[Cya]TP-OH), the ATP production was “significantly increased” and the spare respiratory capacity was “significantly increased”.
